According to patent US20230146455A1, “TREATMENT OF INFLAMMATORY DISEASES WITH PEPTIDES AND PHARMACEUTICAL COMPOSITIONS” (Yuyu Pharma, Inc., priority 2020, published 2023):
Several values for one entry are separate records, joined by “and”; a condition that tells them apart may be missing. Equal values may be shown once. Where a SMILES comes first, the peptide text is derived from it. [ ]: non-standard residue; d: D form. Hyp = O=C(O)[C@@H]1C[C@@H](O)CN1

Test system: IL-2
Experiment: Example 9 Luminex, LPS hPBMCs: IL-2
Type: cell-based, human
Details: for IL-2 Concentration: dilution 2.0
Experimental: Treatment Human PBMCs were pretreated with YY-101, YDE-011 and YDE-043 or reference compound; Xiidra® at various concentration (ranging from 1 nM to 100 uM) for 2 h before stimulation. An equal volume of 0.5% DMSO was used as a vehicle control. Then, the cells were treated with LPS at 5 ug/ml. The supernatants from treated cells were harvested at 24 h and placed in a 96 well for Luminex cytokine & chemokine profiling using a Luminex 200 multiplex assay (Luminex; R&D system, USA).
The main study arm with triplicate wells per group in a 24-well plate: • 1. Blank • 2. PBMC: 0.5% DMSO • 3. PBMC+LPS (5 ug/ml) • 4. PBMC+YY-101 100 uM • 5. PBMC+YY-101 10 uM • 6. PBMC+YY-101 1 uM • 7. PBMC+YY-101 0.1 uM • 8. PBMC+YY-101 0.01 uM • 9. PBMC+LPS (5 ug/ml)+Xiidra®100 uM • 10. PBMC+LPS (5 ug/ml)+Xiidra® 10 uM • 11. PBMC+LPS (5 ug/ml)+Xiidra® 1 uM • 12. PBMC+LPS (5 ug/ml)+Xiidra®0.1 uM • 13. PBMC+LPS (5 ug/ml)+Xiidra®0.01 uM • 14. PBMC+LPS (5 ug/ml)+Xiidra®0.001 uM • 15. PBMC+LPS (5 ug/ml)+YY-101 100 uM • 16. PBMC+LPS (5 ug/ml)+YY-101 10 uM • 17. PBMC+LPS (5 ug/ml)+YY-101 1 uM • 18. PBMC+LPS (5 ug/ml)+YY-101 0.1 uM • 19. PBMC+LPS (5 ug/ml)+YY-101 0.01 uM • 20. PBMC+LPS (5 ug/ml)+YY-101 0.001 uM • 21. PBMC+LPS (5 ug/ml)+YDE-011 100 uM • 22. PBMC+LPS (5 ug/ml)+YDE-011 10 uM • 23. PBMC+LPS (5 ug/ml)+YDE-011 1 uM • 24. PBMC+LPS (5 ug/ml)+YDE-011 0.1 uM • 25. PBMC+LPS (5 ug/ml)+YDE-011 0.01 uM • 26. PBMC+LPS (5 ug/ml)+YDE-011 0.001 uM • 27. PBMC+LPS (5 ug/ml)+YDE-043 100 uM • 28. PBMC+LPS (5 ug/ml)+YDE-043 10 uM • 29. PBMC+LPS (5 ug/ml)+YDE-043 1 uM • 30. PBMC+LPS (5 ug/ml)+YDE-043 0.1 uM • 31. PBMC+LPS (5 ug/ml)+YDE-043 0.01 uM • 32. PBMC+LPS (5 ug/ml)+YDE-043 0.001 uM
Multiplex assay was used to measure 30 cytokines and chemokines. The 1:2, 1:10 and 1:200 diluted cell supernatant and serial dilution of the standard were dispensed into a 96 well plate at 50 ul/well. Then, the pre-mixed cocktail of antibody-coated magnetic beads was dispensed at 50 ul/well and incubated at room temperature for 2 h in a horizontal orbital microplate shaker at 800±500 rpm. The beads were washed using a magnetic device to prevent loss. The biotin-antibody was dispensed in 50 ul of each well and incubated at room temperature for 1 h in a shaker at 800±500 rpm. After washing, streptavidin-PE was added at 50 ul/well and incubated at room temperature for 30 min in a shaker under the same conditions. Finally, after washing, wash buffer (100 ul/well) was added to the plate and incubated in a shaker for 2 min. The Luminex™ 200 setting were set according to the manufacturer's protocol. The data was calculated with a standard five-parameter logistic nonlinear regression analysis of the data (xPonent software 4.2, USA). The levels of cytokine/chemokine are normalized to the live cell counts (1×10^5 cells/mL) and presented as concentrations per mL (pg/mL or ng/mL).

[1] = PBMC + LPS(5 ug/ml) + test article 0.001 uM, Mean
[2] = PBMC + LPS(5 ug/ml) + test article 0.001 uM, single replicates
[3] = PBMC + LPS(5 ug/ml) + test article 0.01 uM, Mean
[4] = PBMC + LPS(5 ug/ml) + test article 0.01 uM, single replicates
[5] = PBMC + LPS(5 ug/ml) + test article 0.1 uM, Mean
[6] = PBMC + LPS(5 ug/ml) + test article 0.1 uM, single replicates
[7] = PBMC + LPS(5 ug/ml) + test article 1 uM, Mean
[8] = PBMC + LPS(5 ug/ml) + test article 1 uM, single replicates
[9] = PBMC + LPS(5 ug/ml) + test article 10 uM, Mean
[10] = PBMC + LPS(5 ug/ml) + test article 10 uM, single replicates
[11] = PBMC + LPS(5 ug/ml) + test article 100 uM, Mean
[12] = PBMC + LPS(5 ug/ml) + test article 100 uM, single replicates
[13] = PBMC + test article 0.01 uM, no LPS, Mean
[14] = PBMC + test article 0.01 uM, no LPS, single replicates
[15] = PBMC + test article 0.1 uM, no LPS, Mean
[16] = PBMC + test article 0.1 uM, no LPS, single replicates
[17] = PBMC + test article 1 uM, no LPS, Mean
[18] = PBMC + test article 1 uM, no LPS, single replicates
[19] = PBMC + test article 10 uM, no LPS, Mean
[20] = PBMC + test article 10 uM, no LPS, single replicates
[21] = PBMC + test article 100 uM, no LPS, Mean
[22] = PBMC + test article 100 uM, no LPS, single replicates

CC(C)C[C@H](NC(=O)CNC(=O)[C@H](CC(=O)O)NC(=O)[C@H](CCC(N)=O)NC(=O)CNC(=O)[C@@H]1C[C@@H](O)CN1)C(=O)N[C@@H](C)C(=O)NCC(=O)N1CCC[C@H]1C(=O)N[C@@H](CCCCN)C(=O)O [YY-101] (H-[Hyp]GQDGLAGPK-OH; N-terminus and C-terminus assumed)
IL-2 conc/live cell [1]: 0.9 pg/10^5 | MFI, Bead name: IL-2 [1]: 16.3 | IL-2 Concentration [1]: 5.7 pg/mL | IL-2 Concentration [2]: 3.4 pg/mL and 7.6 pg/mL and 6.2 pg/mL | IL-2 conc/live cell [2]: 0.6 pg/10^5 and 1.1 pg/10^5 and 0.9 pg/10^5 | MFI, Bead name: IL-2 [2]: 13.0 and 19.0 and 17.0 | IL-2 conc/live cell [3]: 1.4 pg/10^5 | MFI, Bead name: IL-2 [3]: 20.3 | IL-2 Concentration [3]: 8.6 pg/mL | IL-2 Concentration [4]: 6.9 pg/ml (2×) and 11.8 pg/ml | IL-2 conc/live cell [4]: 1.1 pg/10^5 (2×) and 2.0 pg/10^5 | MFI, Bead name: IL-2 [4]: 18.0 (2×) and 25.0 | IL-2 conc/live cell [5]: 0.0 pg/10^5 | MFI, Bead name: IL-2 [5]: 6.3 | IL-2 conc/live cell [6]: 0.0 pg/10^5 | MFI, Bead name: IL-2 [6]: 8.0 (2×) and 3.0 | IL-2 conc/live cell [7]: 0.6 pg/10^5 | MFI, Bead name: IL-2 [7]: 13.7 | IL-2 Concentration [7]: 3.8 pg/mL | IL-2 Concentration [8]: 5.2 pg/mL and 3.7 pg/mL and 2.6 pg/mL | IL-2 conc/live cell [8]: 0.8 pg/10^5 and 0.5 pg/10^5 and 0.4 pg/10^5 | MFI, Bead name: IL-2 [8]: 15.5 and 13.5 and 12.0 | IL-2 conc/live cell [9]: 0.8 pg/10^5 | MFI, Bead name: IL-2 [9]: 15.7 | IL-2 Concentration [9]: 5.3 pg/mL | IL-2 Concentration [10]: 8.0 pg/mL and 4.1 pg/mL and 3.7 pg/mL | IL-2 conc/live cell [10]: 1.3 pg/10^5 and 0.6 pg/10^5 and 0.5 pg/10^5 | MFI, Bead name: IL-2 [10]: 19.5 and 14.0 and 13.5 | IL-2 conc/live cell [11]: 0.1 pg/10^5 | MFI, Bead name: IL-2 [11]: 9.0 | IL-2 Concentration [11]: 1.1 pg/mL | IL-2 Concentration [12]: 1.9 pg/mL and 0.4 pg/mL | IL-2 conc/live cell [12]: 0.3 pg/10^5 and 0.1 pg/10^5 and 0.0 pg/10^5 | MFI, Bead name: IL-2 [12]: 11.0 and 9.0 and 7.0 | IL-2 conc/live cell [13]: 11.5 pg/10^5 | MFI, Bead name: IL-2 [13]: 93.3 | IL-2 Concentration [13]: 57.4 pg/mL | IL-2 Concentration [14]: 56.9 pg/mL and 57.9 pg/mL | IL-2 conc/live cell [14]: 10.9 pg/10^5 and 12.1 pg/10^5 | MFI, Bead name: IL-2 [14]: 92.5 and 94.0 | IL-2 conc/live cell [15]: 11.5 pg/10^5 | MFI, Bead name: IL-2 [15]: 96.3 | IL-2 Concentration [15]: 59.3 pg/mL | IL-2 Concentration [16]: 45.4 pg/mL and 73.2 pg/mL | IL-2 conc/live cell [16]: 10.3 pg/10^5 and 12.6 pg/10^5 | MFI, Bead name: IL-2 [16]: 75.0 and 117.5 | IL-2 conc/live cell [17]: 11.4 pg/10^5 | MFI, Bead name: IL-2 [17]: 101.5 | IL-2 Concentration [17]: 62.8 pg/mL | IL-2 Concentration [18]: 59.8 pg/mL and 65.7 pg/mL | IL-2 conc/live cell [18]: 10.9 pg/10^5 and 11.9 pg/10^5 | MFI, Bead name: IL-2 [18]: 97.0 and 106.0 | IL-2 conc/live cell [19]: 11.3 pg/10^5 | MFI, Bead name: IL-2 [19]: 113.5 | IL-2 Concentration [19]: 70.6 pg/mL | IL-2 Concentration [20]: 69.6 pg/mL and 71.5 pg/mL | IL-2 conc/live cell [20]: 10.9 pg/10^5 and 11.7 pg/10^5 | MFI, Bead name: IL-2 [20]: 112.0 and 115.0 | IL-2 conc/live cell [21]: 2.2 pg/10^5 | MFI, Bead name: IL-2 [21]: 29.0 | IL-2 Concentration [21]: 14.6 pg/mL | IL-2 Concentration [22]: 13.2 pg/mL and 16.0 pg/mL | IL-2 conc/live cell [22]: 2.1 pg/10^5 and 2.3 pg/10^5 | MFI, Bead name: IL-2 [22]: 27.0 and 31.0
